Entries after “also recorded” stand apart in the source; their conditions may differ.
How the values were obtained:
[1] = Thermal stability of Diels-Alder adducts in toluene-d8 (retro-Diels-Alder conversion by 1H NMR); assay type: physicochemical
Text: For example, FIGS. 7A and 7B illustrate that addition of the 3-phenoxy group to the furan moiety leads to a pronounced increase in the thermal stability of the Diels-Alder adduct of many embodiments. Not to be bound by any theory, this effect has been observed previously for cycloadducts derived from 3-alkoxy-furans, and it has been ascribed to a reduction in the energetic penalty for loss of furan aromaticity (as explained, for example in: Boutelle, R. C.; Northrop, B. H. Substituent Effects on the Reversibility of Furan-Maleimide Cycloadditions. J. Org. Chem. 2011, 76, 7994-8002; and Foster, R. W.; et al. Irreversible endo-Selective Diels-Alder Reactions of Substituted Alkoxyfurans: A General Synthesis of endo-Cantharimides. Chemistry 2015, 21, 6107-6114, the disclosures of which are incorporated herein by reference). Accordingly, FIG. 7A illustrates that, […] after 5 h, while the same conditions lead to approximately 46% reversion of the analogous Diels-Alder adduct (±)-216 without the 3-phenoxy substituent. […] Accordingly, in many embodiments, 3-phenoxy, or any similar aryloxy substituent at 3-position of the furan moiety enhances the thermal stability of such mechanophore platforms without any detriment to their mechanochemical activity.
In comparison, as described herein, heating the Diels-Alder adduct comprising a 3-OPh substituted furan moiety at 70° C. under the same conditions results in <2% retro-Diels-Alder conversion, while for the Diels-Alder adduct comprising neither substituent the conversion ˜46% under the same heating conditions.

[2] = Decomposition of model 2-furylcarbinol derivatives in solution at room temperature, followed by NMR and photoluminescence spectroscopy
Text: The generation of hydroxycoumarin 2 in the room temperature solution of furfuryl carbonate 1 in MeCN:MeOH (3:1) was also monitored over time using fluorescence spectroscopy (FIG. 3C).
Furthermore, FIG. 8C illustrates the kinetics of the decomposition of furfuryl carbamates comprising α-methyl, 3-phenoxy, and 5-position substituents according to many embodiments, such as exemplified by 21, and compares them to the furfuryl carbamates without the 3-phenoxy substitution, such as exemplified by furfuryl carbamate 22. More specifically, FIG. 8C provides data from experimental studies, wherein the decompositions of 21 and 22 to generate aminocoumarin 23 were monitored as a function of time using NMR and PL spectroscopy.

[3] = toluene-d8, room temperature, after 132 days

With `CC(O)C12OC(COC(=O)C(C)(C)Br)(C=C1Oc1ccccc1)C1C(=O)N(CCOC(=O)C(C)(C)Br)C(=O)C12` (racemic) [(±)-29, (2-(2-((2-bromo-2-methylpropanoyl)oxy)ethyl)-7-(1-hydroxyethyl)-1,3-dioxo-6-phenoxy-1,2,3,3a,7,7a-hexahydro-4H-4,7-epoxyisoindol-4-yl)methyl 2-bromo-2-methylpropanoate] the retro-Diels-Alder conversion ([1]; toluene-d8, 70° C., after 5 h) was under 2%, the retro-Diels-Alder conversion ([1]; toluene-d8, 70° C., after 21 h) was under 7% and the thermal stability ([1]; toluene-d8, room temperature) was “stable indefinitely”. The retro-Diels-Alder conversion [1, 3] was “no reaction is observed”.
For `CC(C)(Br)C(=O)OCCc1ccc(OC23C=CC(CO)(O2)C2C(=O)N(CCOC(=O)C(C)(C)Br)C(=O)C23)cc1` (racemic) [(±)-33, 4-((2-(2-((2-bromo-2-methylpropanoyl)oxy)ethyl)-7-(hydroxymethyl)-1,3-dioxo-1,2,3,3a,7,7a-hexahydro-4H-4,7-epoxyisoindol-4-yl)oxy)phenethyl 2-bromo-2-methylpropanoate], the retro-Diels-Alder conversion ([1]; toluene-d8 (7.7 mM), room temperature, nearly two months) was “negligible; also recorded: no detectable products” and the retro-Diels-Alder conversion ([1]; toluene-d8, 70° C., after 21 h) was about 35%.
In the case of `CC(O)[C@@]12C=C[C@@](COC(=O)C(C)(C)Br)(O1)[C@@H]1C(=O)N(CCOC(=O)C(C)(C)Br)C(=O)[C@@H]12` (mixture of isomers) [(±)-216], the retro-Diels-Alder conversion ([1]; toluene-d8, 70° C., after 5 h) was “approximately 46%”, the retro-Diels-Alder conversion ([1]; toluene-d8, 70° C., after 21 h) was “nearly quantitative” and the thermal stability ([1]; toluene-d8, room temperature) was “slow, but detectable, reversion”. The retro-Diels-Alder conversion [1, 3] was “approximately 23%”.
For `Cc1cc(=O)oc2cc(OC(=O)OC(C)c3ccc(COC(=O)C(C)(C)Br)o3)ccc12` (centres unmarked) [Compound 1, (5-(1-((((4-methyl-2-oxo-2H-chromen-7-yl)oxy)carbonyl)oxy)ethyl)furan-2-yl)methyl 2-bromo-2-methylpropanoate], the stability in solvent ([2]; DCM, chloroform, and hexanes) was “relatively stable”, the half-life ([2]; acetonitrile-d3/methanol solution, reaction half-life t1/2 of decomposition, 3:1 (v/v) acetonitrile-d3/methanol, room temperature, from NMR measurements) was 1.32 h and the stability in solvent ([2]; acidic and protic solvents) was “decomposes quickly”. For the same compound, the stability in solvent ([2]; chloroform and acetonitrile) was “relatively stable” and the half-life ([2]; water/acetonitrile-d3 solution, half-life of decomposition, water/acetonitrile mixture (water 25% by volume in acetonitrile-d3), room temperature, NMR) was about 0.133 h.
With `Cc1cc(=O)oc2cc(NC(=O)OC(C)c3oc(COC(=O)C(C)(C)C)cc3Oc3ccccc3)ccc12` (centres unmarked) [Compound 21, (5-(1-(((4-methyl-2-oxo-2H-chromen-7-yl)carbamoyl)oxy)ethyl)-4-phenoxyfuran-2-yl)methyl pivalate] the “time to full conversion to products” value ([2]; 3:1 MeCN/MeOH, room temperature) was “approximately 5 h” and the half-life at 19 μM ([2]; MeCN-d3/MeOH solution, half-life for decomposition t1/2, 3:1 MeCN-d3/MeOH, room temperature, NMR, first-order fit) was 0.567 h.
With `Cc1cc(=O)oc2cc(NC(=O)OC(C)c3ccc(COC(=O)C(C)(C)C)o3)ccc12` (centres unmarked) [Compound 22, (5-(1-(((4-methyl-2-oxo-2H-chromen-7-yl)carbamoyl)oxy)ethyl)furan-2-yl)methyl pivalate] the conversion ([2]; 19.6 mM in MeCN-d3:MeOH (3:1), room temperature, after 134 days, 1H NMR) was “approximately 40%” and the decomposition reactivity ([2]; 3:1 MeCN/MeOH, room temperature, same conditions as 21) was “completely unreactive”.
In the case of `Cc1cc(=O)oc2cc(NC(=O)OCc3ccc(Oc4ccc(CCOC(=O)C(C)(C)Br)cc4)o3)ccc12` [Compound 35, 4-((5-((((4-methyl-2-oxo-2H-chromen-7-yl)carbamoyl)oxy)methyl)furan-2-yl)oxy)phenethyl 2-bromo-2-methylpropanoate], the half-life at 21 mM ([2]; acetonitrile-d3/methanol solution, half-life for consumption t1/2, 3:1 acetonitrile-d3/methanol, room temperature, NMR, 21 mM) was 9.3 h, the “yield of aminocoumarin released” value ([2]; acetonitrile/methanol (3:1 v/v), room temperature) was “nearly quantitative” and the half-life ([2]; acetonitrile/methanol solution, half-life of consumption and aminocoumarin generation, acetonitrile/methanol (3:1 v/v), room temperature, 1H NMR and PL) was about 10 h.
With `Cc1cc(=O)oc2cc(OC(=O)OCc3ccc(COC(=O)C(C)(C)Br)o3)ccc12` [Compound S2, (5-(((((4-methyl-2-oxo-2H-chromen-7-yl)oxy)carbonyl)oxy)methyl)furan-2-yl)methyl 2-bromo-2-methylpropanoate] the “estimated half-lives for decomposition” value ([2]; room temperature) was “several weeks”.
